Here are results for 20 compounds from BindingDB's records for doi:10.1021/jm00058a003 (Upjohn Laboratories, 1993).

As usually defined, the Ki is a measure of affinity in units of concentration, obtained from inhibition or displacement. Low values mean higher affinity, high ones lower affinity.

This assay concerns the target 5-HT1A receptor (Bos taurus). In words: In vitro binding affinity towards [3H]8-OH-DPAT-labeled 5-hydroxytryptamine 1A receptor sites in bovine hippocampus.

In turn, `CCCN[C@@H]1CCc2cccc(OC)c2[C@@H]1CCC` [(8-Methoxy-1-propyl-1,2,3,4-tetrahydro-naphthalen-2-yl)-propyl-amine] displayed an inhibition constant (Ki) of 11 nM. The value for `C=CCN[C@@H]1CCc2cccc(OC)c2[C@@H]1CC1CC1` [Allyl-(1-cyclopropylmethyl-8-methoxy-1,2,3,4-tetrahydro-naphthalen-2-yl)-amine] was 9.4 nM; that for `C=CC[C@H]1c2c(cccc2OC)CC[C@H]1N(CCC)CCC` [(1-Allyl-8-methoxy-1,2,3,4-tetrahydro-naphthalen-2-yl)-dipropyl-amine] was 6.3 nM. In the case of `C=CC[C@@H]1c2ccccc2CC[C@H]1NCCC` (relative stereo) [(trans)-(1-Allyl-1,2,3,4-tetrahydro-naphthalen-2-yl)-propyl-amine] it was more than 1000 nM; in that of `CCCN[C@@H]1CCc2cccc(OC)c2[C@@H]1CO` [(8-Methoxy-2-propylamino-1,2,3,4-tetrahydro-naphthalen-1-yl)-methanol], 5.4 nM; in that of `C=CCN[C@@H]1CCc2cccc(O)c2[C@@H]1CC=C` [8-Allyl-7-allylamino-5,6,7,8-tetrahydro-naphthalen-1-ol], 1 nM. The value for `C=CC[C@H]1c2cccc(OC)c2CC[C@H]1NCCC` [(1-Allyl-5-methoxy-1,2,3,4-tetrahydro-naphthalen-2-yl)-propyl-amine] was more than 1000 nM; that for `CCCN[C@@H]1CCc2cccc(OC)c2[C@@H]1CC1CC1` [(1-Cyclopropylmethyl-8-methoxy-1,2,3,4-tetrahydro-naphthalen-2-yl)-propyl-amine] was 15 nM.

On to `C=CC[C@H]1c2ccccc2CC[C@H]1NCCC` [(1-Allyl-1,2,3,4-tetrahydro-naphthalen-2-yl)-propyl-amine], for which the inhibitory constant (Ki) worked out at 174 nM. On to `C=CC[C@H]1c2c(cccc2OC)CC[C@H]1NCC1CC1` [(1-Allyl-8-methoxy-1,2,3,4-tetrahydro-naphthalen-2-yl)-cyclopropylmethyl-amine], for which the affinity, expressed as Ki, was 2.9 nM. Compound `C=CCN[C@@H]1CCc2ccccc2[C@H]1CC=C` (relative stereo) [(trans)-Allyl-(1-allyl-1,2,3,4-tetrahydro-naphthalen-2-yl)-amine] registered an inhibition constant (Ki) of more than 1000 nM. Take `C=CC[C@H]1c2c(cccc2OC)CC[C@H]1NCCC` [(1-Allyl-8-methoxy-1,2,3,4-tetrahydro-naphthalen-2-yl)-propyl-amine]: the Ki is 1.8 nM. The value for `C=CCN[C@@H]1CCc2ccccc2[C@@H]1CC=C` [Allyl-(1-allyl-1,2,3,4-tetrahydro-naphthalen-2-yl)-amine] was 152 nM.

`CCCN[C@@H]1CCc2cccc(OC)c2[C@H]1CC1CC1` (relative stereo) [(trans)-(1-Cyclopropylmethyl-8-methoxy-1,2,3,4-tetrahydro-naphthalen-2-yl)-propyl-amine] showed a Ki of 9.3 nM.

In turn, `C=CC[C@H]1c2c(O)cccc2CC[C@H]1NCCC` [8-Allyl-7-propylamino-5,6,7,8-tetrahydro-naphthalen-1-ol] came in with an inhibitory constant (Ki) of 0.5 nM. In the case of `C=CC[C@@H]1c2c(cccc2OC)CC[C@H]1NCC1CC1` (relative stereo) [(trans)-(1-Allyl-8-methoxy-1,2,3,4-tetrahydro-naphthalen-2-yl)-cyclopropylmethyl-amine] it was 4.1 nM. Compound `C=CC[C@@H]1c2c(cccc2OC)CC[C@H]1NCCC` (relative stereo) [(trans)-(1-Allyl-8-methoxy-1,2,3,4-tetrahydro-naphthalen-2-yl)-propyl-amine] gave a Ki of 19 nM.

Compound `C=CCN[C@@H]1CCc2cccc(OC)c2[C@H]1CC1CC1` (relative stereo) [(trans)-Allyl-(1-cyclopropylmethyl-8-methoxy-1,2,3,4-tetrahydro-naphthalen-2-yl)-amine] had a Ki of 15 nM. In the case of `C=CC[C@@H]1c2cccc(OC)c2CC[C@H]1NCCC` (relative stereo) [(trans)-(1-Allyl-5-methoxy-1,2,3,4-tetrahydro-naphthalen-2-yl)-propyl-amine] it was more than 1000 nM. The value for `CCCN(C)[C@@H]1CCc2cccc(OC)c2[C@@H]1CO` [[8-Methoxy-2-(methyl-propyl-amino)-1,2,3,4-tetrahydro-naphthalen-1-yl]-methanol] was 5 nM.
